Measured values: ChEMBL document CHEMBL4229350, “Antimicrobial activity and self-assembly behavior of antimicrobial peptide chensinin-1b with lipophilic alkyl tails” (Eur J Med Chem, 2018)
One block for each compound: values may come before it. Calls of active or inactive are those of the source. The rule behind the calls is not given here. Bridge positions count the residues as written; N and C are the ends. Square brackets hold non-standard residues; d marks the D form. Peptide text beside a SMILES is read from it. * marks the point of attachment. X1 = CC[C@H](C)CCCCC(=O)*; Dab = NCC[C@H](N)C(=O)O

Assays:
[1] = system: MCF7; test: Cytotoxicity against human MCF7 cells assessed as reduction in cell viability after 1 hr by MTT assay; assay type: functional, cell-based; conditions: MCF7, 1 h
[2] = system: HeLa; test: Cytotoxicity against human HeLa cells assessed as reduction in cell viability after 1 hr by MTT assay; assay type: functional, cell-based
[3] = system: Pseudomonas aeruginosa; test: Antimicrobial activity against Pseudomonas aeruginosa CGMCC 1.860 after 18 hrs by micro dilution method; assay type: functional; conditions: CGMCC 1.860, 18 h
[4] = system: Staphylococcus aureus; test: Antimicrobial activity against Staphylococcus aureus AS 1.72 assessed as induction of bacterial cytoplasmic membrane depolarization at 2 times MIC after 6 mins by diSC3-5 dye-based fluorescence assay; assay type: functional, organism-based
[5] = system: Staphylococcus aureus; test: Antimicrobial activity against Staphylococcus aureus AS 1.72 assessed as induction of outer membrane permeabilization by measuring NPN uptake by fluorescence assay; assay type: functional, organism-based
[6] = system: Lipid bilayer; test: Induction of membrane permeabilization in calcein loaded LPS/PC/PG large unilamellar vesicles assessed as calcein leakage at 50 uM after 15 mins by fluorescence assay relative to control
[7] = system: Enterococcus faecalis; test: Antimicrobial activity against Enterococcus faecalis CGMCC 1.595 after 18 hrs by micro dilution method; assay type: functional; conditions: CGMCC 1.595, 18 h
[8] = Self-assembly property assessed as diameter of monodispersed micelles at 1 mg/ml at pH 7 by DLS method; assay type: physicochemical
[9] = system: Staphylococcus aureus; test: Antimicrobial activity against Staphylococcus aureus AS 1.72 after 18 hrs by micro dilution method; assay type: functional; conditions: AS 1.72, 18 h
[10] = system: Lipid bilayer; test: Induction of membrane permeabilization in calcein loaded LPS/PC/PG large unilamellar vesicles assessed as calcein leakage after 15 mins by fluorescence assay
[11] = system: Lipid bilayer; test: Induction of membrane permeabilization in calcein loaded PC/cholesterol large unilamellar vesicles assessed as calcein leakage at 50 uM after 10 mins by fluorescence assay relative to control
[12] = system: Escherichia coli; test: Antimicrobial activity against Escherichia coli AS 1.349 assessed as induction of outer membrane permeabilization by measuring NPN uptake by fluorescence assay; assay type: functional, organism-based
[13] = Self-assembly property assessed as diameter of monodispersed micelles at 1 mg/ml at pH 7 by TEM analysis; assay type: physicochemical
[14] = system: Enterococcus faecium; test: Antimicrobial activity against Enterococcus faecium CGMCC 1.2334 after 18 hrs by micro dilution method; assay type: functional; conditions: CGMCC 1.2334, 18 h
[15] = system: A-375; test: Cytotoxicity against human A375 cells assessed as reduction in cell viability after 1 hr by MTT assay; assay type: functional, cell-based; conditions: A-375, 1 h
[16] = Hemolytic activity against human erythrocytes after 1 hr; assay type: ADME, cell-based, Erythrocyte
[17] = system: Lactococcus lactis; test: Antimicrobial activity against Streptococcus lactis AS 1.1690 after 18 hrs by micro dilution method; assay type: functional; conditions: AS 1.1690, 18 h
[18] = system: Bacillus cereus; test: Antimicrobial activity against Bacillus cereus AS 1.126 after 18 hrs by micro dilution method; assay type: functional; conditions: AS 1.126, 18 h
[19] = Self-assembly property assessed as diameter of monodispersed micelles at 1 mg/ml at pH 2 by DLS method; assay type: physicochemical
[20] = system: Escherichia coli; test: Antimicrobial activity against Escherichia coli AS 1.349 after 18 hrs by micro dilution method; assay type: functional; conditions: AS 1.349, 18 h
[21] = system: U-937; test: Antiinflammatory activity in human U937 cells assessed as inhibition of LPS-induced TNF-alpha production up to 40 microg/ml after 24 hrs by ELISA relative to control; assay type: functional
[22] = system: U-937; test: Antiinflammatory activity in human U937 cells assessed as inhibition of LPS-induced IL-6 production up to 40 microg/ml after 24 hrs by ELISA relative to control; assay type: functional

- MIC [3]: 1.56 µM
- Activity [6]: 62%
- MIC [7]: 3.13 µM
- Activity [8]: 60 nm
- MIC [9]: 3.13 µM
- Activity [10]: Dose-dependent effect
- Activity [11]: 20%
- Activity [13]: 141 nm
- MIC [14]: 1.56 µM
- MIC [17]: 3.13 µM
- MIC [18]: 3.13 µM
- Activity [19]: 3990 nm
- MIC [20]: 6.25 µM
Compound: H-SKVWRHWRRFWHRAHRKL-OH
- IC50 [1]: 51.9 µM
- IC50 [2]: 113 µM
- Activity [4]: Active
- Activity [5]: Dose-dependent effect
- Activity [12]: Dose-dependent effect
- IC50 [15]: > 125 µM
- HC50 at 1 h [16]: > 500 µM

Compound: CC[C@H](C)CCCCC(=O)N[C@@H](CCN)C(=O)N[C@H](C(=O)N[C@@H](CCN)C(=O)N[C@H]1CCNC(=O)[C@H]([C@@H](C)O)NC(=O)[C@H](CCN)NC(=O)[C@H](CCN)NC(=O)[C@H](CC(C)C)NC(=O)[C@@H](Cc2ccccc2)NC(=O)[C@H](CCN)NC1=O)[C@@H](C)O (X1-[Dab]T[Dab][Dab][Dab][dF]L[Dab][Dab]T; lactam 4-C)
- inhibition (INH) [21]: 28%
- inhibition (INH) [22]: 44%
